Laboratory results: paper PMC12522106 (Cancer Research Communications, 2025)

Experiments:
[1] = system: LM7 sarcospheres; assay: Transient romidepsin treatment, recovery of metabolic activity; format: cell-based, human; details: 10–100 nmol/L; followed to day 14
Experimental: (§1) Sarcosphere losses were minimized by removing the media stepwise (25 μL/step, 10 μL/second) and by centering the sarcospheres in the middle of each well by centrifugation (1,000 g for 6 minutes) before each media exchange cycle. After each assay of metabolic activity, resazurin was removed by three cycles of media exchange and the media were changed on days 10 and 12 by one cycle.

[2] = system: 143B sarcospheres; assay: as above; format: cell-based, human; details: followed to day 14
Experimental: as §1

[3] = system: sarcospheres from human patients with osteosarcoma; assay: Resazurin metabolic activity of human patient-derived sarcospheres; format: cell-based; details: for ED50: 48 hours, metabolic activity
Source text: (§2) Osteosarcoma tissue was obtained during standard-of-care procedures (biopsies or resections) in human patients treated at Indiana University Health and Riley Children’s Hospital with Institutional Review Board approval (#1501467439). Tissue from canine patients with osteosarcoma was obtained from standard-of-care amputations at the Purdue University College of Veterinary Medicine and the Metropolitan Veterinary Hospital. Osteosarcoma diagnosis was confirmed by review of pathology reports. Demographic and clinical information for human and canine patients is in Table 1. Primary osteosarcoma cells were isolated by collagenase/mechanical dispersion using a modification of a previously described protocol ([35]). […] The tissue was rinsed with cold PBS (Cytiva, cat. #SH30028.02) and minced prior to incubation in 10 mL of culture media containing collagenase type II (750 units/mL with 13–18 units of clostripain/mL, Worthington, cat. #LS004176) for 3 hours at 37°C and 5% CO2. The media and tissue fragments were centrifuged at 200 g for 5 minutes. Pellets with a visible layer of red blood cells were then treated with 5 mL of ACK Lysing Buffer (Gibco, cat. #A10492-01) for 1 minute and then centrifuged at 200 g for 2 minutes. Pellets were resuspended in culture media, pipetted up and down 15 times to disperse tissue fragments, and centrifuged at 200 g for 5 minutes. Finally, any remaining tissue fragments were crushed with a 25-mL pipette and transferred with released cells and culture media to a 100-mm tissue culture dish and incubated at 37°C and 5% CO2. Media were changed every 3 days. When a confluence of ∼80% was reached, the cells were passaged to 150-mm dishes at 5,000 cells/cm^2. Aliquots of the patient-derived osteosarcoma cells were frozen in 10% DMSO (Sigma-Aldrich, D2650), 40% FBS (Cytiva, SH30071.03), and 50% culture media at second passage and stored in liquid nitrogen. The TT2-77 xenoline is a patient cell line that was isolated from a patient-derived xenograft (PDX) that was previously developed and characterized by the Pollok lab ([5]).
(§3) The number of patient-derived cells required to obtain sarcospheres with 400-μm diameters was determined for each patient and varied from 1,000 to 15,000 cells per sarcosphere.
(§4) Round-bottom 96-well plates were coated with 50 μL/well of 0.5% poly 2-hydroxyethyl methacrylate (Polysciences Inc., cat. #09689-25) in 100% ethanol and incubated at 37°C for 3 days before use to obtain a nonadherent surface. […] Highly metastatic osteosarcoma cells cultured in monolayers at 50% to 80% confluence were lifted with Accutase (Innovative Cell Technologies, Inc., cat. #NC9839010), resuspended in media, and diluted to the desired concentration.

[4] = system: subcutaneous xenograft models of osteosarcoma cell lines; details: cited from earlier work
[5] = system: sarcospheres derived from 143B, MG63.3-GFP, and LM7 cell lines; assay: Sarcosphere resazurin metabolic activity, results stated across all three cell lines; format: cell-based, human; details: with and without MAP; vs belinostat, panobinostat, vorinostat, AR-42, resminostat
Experimental: Khanna DVM, PhD (NCI). […] Medium was sterile filtered before use.
Highly metastatic osteosarcoma cells cultured in monolayers at 50% to 80% confluence were lifted with Accutase (Innovative Cell Technologies, Inc., cat. #NC9839010), resuspended in media, and diluted to the desired concentration. […] Following cell seeding, plates were centrifuged (1,000 g for 10 minutes at 4°C) and then incubated at 37°C with 5% CO2. […] Then, 100 μL drug treatment or vehicle was added to each well. […] Resazurin reduction on day 2 by vehicle-treated sarcospheres was compared with resazurin reduction on day 0 to calculate sarcosphere growth without drug over 2 days in selected experiments.
Plates were incubated at 37°C in 5% CO2 for 2 or 6 hours.
Sarcospheres were matured for 24 hours and then treated for 48 hours with media containing 10 µmol/L of each drug and 0.1% DMSO. […] Growth inhibition represents a more clinically translatable measure for screening studies in which a value of 0% represents stable disease since the start of treatment, values of 0% to 100% represent progression in which 100% is the untreated control, and values less than 0% represent regression in which −100% represents blank wells without sarcospheres.

[6] = system: sarcospheres from canine patients with osteosarcoma; assay: Resazurin metabolic activity of canine patient-derived sarcospheres; format: cell-based; details: for ED50: 48 hours, metabolic activity
Source text: as §2, §3, §4

With `C/C=C1\NC(=O)[C@H]2CSSCC/C=C/[C@H](CC(=O)N[C@H](C(C)C)C(=O)N2)OC(=O)[C@H](C(C)C)NC1=O` [romidepsin] as the compound, how does the “recovery of metabolic activity after a 24-hour exposure” value [1] read?
Its value is “sustained effect for 14 days”.

And the “recovery of metabolic activity after a 24-hour exposure” value [2]?
The value was “rapidly recovered”.

What about the “share of human patient samples whose sarcospheres responded” value ([3]; ED50s <70 nmol/L) of the same compound?
Its value is ~30%.

What about the ED50 ([3]; TT2-77 Xenoline (romidepsin sensitive)) of the same compound?
The ED50 was 10 nmol/L.

What about the “ED50 of the notably more sensitive patient” value ([3]; one patient) of the same compound?
Its value is 1 nM.

What about the ED50 ([3]; patient sample IUhOS002LR (romidepsin resistant)) of the same compound?
Its ED50 is >1,000 nmol/L.

What about the ED50 ([3]; patient sample IUhOS005B (romidepsin resistant)) of the same compound?
Its ED50 is >1,000 nmol/L.

And the ED50 ([3]; patient sample IUhOS006B (romidepsin sensitive))?
Its ED50 is 6 nmol/L.

What about the ED50 ([3]; patient sample IUhOS013B (romidepsin resistant)) of the same compound?
The ED50 was >1,000 nmol/L.

And the ED50 ([3]; patient sample IUhOS018B (romidepsin sensitive))?
Its ED50 is 1 nmol/L.

What about the ED50 ([3]; patient sample IUhOS020LR (romidepsin sensitive)) of the same compound?
The ED50 was 63 nmol/L.

And the ED50 ([3]; patient sample IUhOS021B (romidepsin resistant))?
Its ED50 is >1,000 nmol/L.

And the ED50 ([3]; patient sample IUhOS027P (romidepsin resistant))?
Its ED50 is >1,000 nmol/L.

And the ED50 ([3]; patient sample IUhOS029LR (romidepsin resistant))?
The ED50 was >1,000 nmol/L.

What about the ED50 ([3]; patient sample IUhOS0410B (romidepsin resistant)) of the same compound?
Its ED50 is >1,000 nmol/L.

And the ED50 ([3]; patient sample IUhOS0410P (romidepsin resistant))?
Its ED50 is >1,000 nmol/L.

And the ED50 ([3]; patient sample IUhOS1516B (romidepsin sensitive))?
The ED50 was 10 nmol/L.

And the ED50 ([3]; patient sample IUhOS1516P (romidepsin resistant))?
The ED50 was >1,000 nmol/L.

And the ED50 ([3]; patient sample IUhOS1925B (romidepsin resistant))?
The ED50 was >1,000 nmol/L.

And the ED50 ([3]; patient sample IUhOS1925P (romidepsin resistant))?
Its ED50 is >1,000 nmol/L.

And the ED50 ([3]; patient sample IUhOS2226B (romidepsin resistant))?
The ED50 was >1,000 nmol/L.

What about the ED50 ([3]; patient sample IUhOS2226P (romidepsin resistant)) of the same compound?
The ED50 was >1,000 nmol/L.

And the tumor response ([4]; mice followed for 1 week after discontinuation)?
Its tumor response is “tumors regressed”.

And the response after discontinuation ([4]; mice followed for 6 weeks after discontinuation)?
The response after discontinuation was “did not induce a sustained response”.

And the “growth of well-established subcutaneous xenografts” value ([4]; small number of mice)?
Its value is “inhibited growth”.

What about the “rank of ED50s among tested HDIs” value [5] of the same compound?
The value was “lowest ED50s”.

What about the “share of canine patient samples whose sarcospheres responded” value ([6]; ED50s <70 nmol/L) of the same compound?
The value was 50%.

And the ED50 ([6]; canine patient sample MVHcOS001 (romidepsin resistant))?
The ED50 was >1,000 nmol/L.

And the ED50 ([6]; canine patient sample MVHcOS002 (romidepsin resistant))?
The ED50 was >1,000 nmol/L.

And the ED50 ([6]; canine patient sample MVHcOS003 (romidepsin sensitive))?
Its ED50 is 22 nmol/L.

And the ED50 ([6]; canine patient sample MVHcOS004 (romidepsin sensitive))?
Its ED50 is 6 nmol/L.

And the ED50 ([6]; canine patient sample MVHcOS005 (romidepsin resistant))?
The ED50 was >1,000 nmol/L.

What about the ED50 ([6]; canine patient sample MVHcOS006 (romidepsin resistant)) of the same compound?
The ED50 was >1,000 nmol/L.

What about the ED50 ([6]; canine patient sample PUcOS001 (romidepsin sensitive)) of the same compound?
Its ED50 is 65 nmol/L.

And the ED50 ([6]; canine patient sample PUcOS002 (romidepsin sensitive))?
The ED50 was 46 nmol/L.

What about the ED50 ([6]; canine patient sample PUcOS003 (romidepsin resistant)) of the same compound?
Its ED50 is >1,000 nmol/L.

What about the ED50 ([6]; canine patient sample PUcOS004 (romidepsin sensitive)) of the same compound?
Its ED50 is 57 nmol/L.
